Legend:
Assay in all cases: relative viability (nuclei count vs DMSO), 5 days (fraction); higher = more cells survive
AZD5582 + Bortezomib = compound: C[C@@H](C(=O)N[C@@H](C1CCCCC1)C(=O)N2CCC[C@H]2C(=O)N[C@@H]3[C@@H](CC4=CC=CC=C34)OCC#CC#CCO[C@@H]5CC6=CC=CC=C6[C@@H]5NC(=O)[C@@H]7CCCN7C(=O)[C@H](C8CCCCC8)NC(=O)[C@H](C)NC)NC [AZD5582] + CC(C)C[C@H](NC(=O)[C@H](Cc1ccccc1)NC(=O)c1cnccn1)B(O)O [Bortezomib] (partner 0.002 µM)
Procedure, shortened: (§1)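 The day after seeding in 1536-well plates, lung cancer cell lines were treated by pin tool with a single drug, or with a fixed anchor-drug dose together with five library-drug doses (not always all listed) in √10 steps. After 5 days, a combined fix-and-stain solution (final 0.05% Triton X-100, 1% formaldehyde, 1 ug/ml Hoechst) was added. Nuclei counted on 4× images gave relative viability as treated counts over vehicle counts, reported as the median of duplicate plates.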

AZD5582 + Vorinostat = compound: C[C@@H](C(=O)N[C@@H](C1CCCCC1)C(=O)N2CCC[C@H]2C(=O)N[C@@H]3[C@@H](CC4=CC=CC=C34)OCC#CC#CCO[C@@H]5CC6=CC=CC=C6[C@@H]5NC(=O)[C@@H]7CCCN7C(=O)[C@H](C8CCCCC8)NC(=O)[C@H](C)NC)NC [AZD5582] + O=C(CCCCCCC(=O)Nc1ccccc1)NO [Vorinostat] (partner 1 µM)
Procedure, shortened: as §1

[1] = compound: Cn1nnc2c(C(N)=O)ncn2c1=O [Temozolomide] + N=C(N)NC(=N)NCCc1ccccc1 [Phenformin] (partner 250 µM)
Procedure, shortened: as §1

Temozolomide + AZD7762 = compound: Cn1nnc2c(C(N)=O)ncn2c1=O [Temozolomide] + NC(=O)Nc1cc(-c2cccc(F)c2)sc1C(=O)N[C@H]1CCCNC1 [AZD7762] (partner 0.2 µM)
Procedure, shortened: as §1

| Cell Line | relative viability (AZD5582 + Bortezomib; first compound 0.001581 µM) | relative viability (AZD5582 + Bortezomib; first compound 0.005 µM) | relative viability (AZD5582 + Bortezomib; first compound 0.01581 µM) | relative viability (AZD5582 + Bortezomib; first compound 0.05 µM) | relative viability (AZD5582 + Vorinostat; first compound 0.001581 µM) | relative viability (AZD5582 + Vorinostat; first compound 0.005 µM) | relative viability (AZD5582 + Vorinostat; first compound 0.01581 µM) | relative viability (AZD5582 + Vorinostat; first compound 0.05 µM) | relative viability ([1]; first compound 0.2 µM) | relative viability ([1]; first compound 0.6325 µM) | relative viability ([1]; first compound 2 µM) | relative viability ([1]; first compound 6.325 µM) | relative viability ([1]; first compound 20 µM) | relative viability (Temozolomide + AZD7762; first compound 0.2 µM) | relative viability (Temozolomide + AZD7762; first compound 0.6325 µM) | relative viability (Temozolomide + AZD7762; first compound 2 µM) | relative viability (Temozolomide + AZD7762; first compound 6.325 µM) | relative viability (Temozolomide + AZD7762; first compound 20 µM) |
| --- | --- | --- | --- | --- | --- | --- | --- | --- | --- | --- | --- | --- | --- | --- | --- | --- | --- | --- |
| HOP-62 | 0.652 | 0.527 | 0.691 | 0.566 | 0.506 | 0.663 | 0.41 | 0.547 | 0.939 | 0.642 | 0.818 | 0.657 | 0.717 | 0.82 | 0.512 | 0.635 | 0.503 | 0.742 |
| LC-2-ad | 1.05 | 1.14 | 0.938 | 1.04 | 0.697 | 0.726 | 0.704 | 0.804 | 0.609 | 0.651 | 0.584 | 0.601 | 0.46 | 0.842 | 0.85 | 0.873 | 0.837 | 0.675 |
| LCLC-97TM1 | 0.542 | 0.531 | 0.455 | 0.298 | 0.34 | 0.62 | 0.159 | 0.343 | 0.427 | 0.487 | 0.492 | 0.418 | 0.412 | 0.352 | 0.293 | – | 0.168 | 0.253 |
| LCLC-103H | 0.972 | 1.14 | 0.958 | 1 | 0.736 | 0.797 | 0.429 | 0.636 | 0.36 | 0.365 | 0.359 | 0.31 | 0.322 | 0.849 | 0.758 | 0.902 | 0.678 | 0.771 |
| LOU-NH91 | 0.45 | 0.509 | 0.489 | 0.443 | 0.867 | 0.872 | 0.794 | 0.842 | 0.612 | 0.74 | 0.711 | 0.788 | 0.476 | 0.77 | 0.784 | 0.836 | 0.79 | 0.75 |
| LU99A | 1.24 | 1.32 | 1.09 | 1.46 | 0.503 | 0.482 | 0.466 | 0.591 | 0.983 | 0.8 | 0.865 | 0.68 | 0.803 | 0.377 | 0.355 | 0.353 | 0.421 | 0.43 |
| LXF-289 | 0.985 | 1.03 | 0.987 | 1.05 | 0.698 | 0.779 | 0.641 | 0.905 | 0.553 | 0.53 | 0.511 | 0.457 | 0.458 | 1.12 | 1.08 | 1.08 | 1.06 | 1.07 |
| NCI-H23 | 0.84 | 1.14 | 0.913 | 0.676 | 0.445 | 0.583 | 0.483 | 0.448 | 0.868 | 0.853 | 0.789 | 0.784 | 0.791 | 0.247 | 0.278 | 0.282 | 0.181 | 0.255 |

From the supplement of paper PMC10307832
